# In patent US8487003B2, “Treatment of cancer by administration of perfluorooctanoic acid” (CXR Biosciences Limited, priority 2001, dated 2013):
# pEC50: −log10 of the molar value.
# Experiments:
# male Fischer 344 rats = assay: APFO in diet of male Fischer 344 rats for up to one year; format: in vivo, rat; conditions: 300 ppm in diet
# Method: Body weights were initially determined daily and then weekly. Food consumption was determined weekly. Clinical observations were made daily.
# Rats were sacrificed at 1, 2, 7, 14, 28, 90, 182 and 365 days. There were 8 rats per group. At sacrifice blood was sampled by cardiac puncture and submitted for clinical chemistry.
# C57BL/6J-ob/ob mice = assay: Obese ob/ob mouse model, oral gavage daily for 14 days; format: in vivo
# Method: (§1) The C57BL/6J-ob/ob mouse is an obese, leptin-deficient animal that is widely accepted as a model of obesity and diabetes. Age-paired, disease-free (lean) animals (C57BL/6J-+/+) were also included in the study to observe the ‘normal’ response.
# (§2) One group of 10 ob/ob mice was also treated with vehicle (water) alone.
# (§3) Twenty-four hours after the last dose the animals were killed by an increasing concentration of carbon dioxide. Blood was collected by cardiac puncture and plasma prepared and stored at −70° C. until analysed. Major tissues were weighed, sampled, flash frozen in liquid nitrogen and stored at −70° C.
# (§4) Plasma was analysed for triglycerides, cholesterol and glucose using kits purchased from Sigma (Poole, Dorset). Concentrations of plasma insulin and leptin were determined using commercially available enzymeimmunoassay-based kits from Amersham Life Sciences and Crystalchem Inc., (Chicago) respectively. All assays were carried out as specified by the manufacturer.
# C57BL/6J-+/+ mice = assay: Lean disease-free +/+ mice, oral gavage daily for 14 days; format: in vivo, mouse; conditions: 25 mg/kg/day
# Method: as §1, §2, §3, §4
# GK/Mol rats = assay: Diabetic GK/Mol rat model, oral gavage daily for 14 days; format: in vivo
# Method: (§5) The GK/Mol rat is a non-obese, diabetic animal that is widely accepted as a model of Type II diabetes. In order to measure the ‘normal’ response, non-diabetic Wistar rats were also used in the study.
# (§6) One group of 10 GK/Mol rats was also treated with vehicle (water) alone.
# as §3
# (§7) Plasma was analysed for, triglycerides, cholesterol, glucose, insulin and leptin as described in section 1.1.1.
# Wistar rats = assay: Non-diabetic Wistar rats, oral gavage daily for 14 days; format: in vivo, rat
# Method: as §5, §6, §3, §7
# HT-29 cells = assay: In vitro cytotoxicity (MTT), HT-29; format: cell-based, human; conditions: HT-29, 4 hours exposure
# Method: (§8) HT-29 cells (human colon tumour-derived), MCF7 cells (human breast cancer-derived) and HepG2 cells (human liver cancer-derived) were cultured in Dulbecco's Modified Eagles Medium (DMEM) supplemented with 10% heat-inactivated foetal calf serum, 2 mM L-glutamine, penicillin (50 IU/ml), streptomycin (50 μg/ml) and 1% non-essential amino acids. Cells were harvested by trypsinisation and diluted to 5×10^4 cells/ml, and 200 μl of cell suspension was plated into each well of a 96 well plate and allowed to attach overnight at 37° C. with 5% CO2. […] 20 μl of a 5 mg/1 m MTT solution was added to each well and the cells were incubated for 4 hours at 37° C. The medium was removed and 200 μl DMSO was added to dissolve formazan crystals. Plates were read at 570 nm and background at 690 nm was subtracted.
# MCF7 cells = assay: In vitro cytotoxicity (MTT), MCF7; format: cell-based, human; conditions: MCF7, 4 hours exposure
# Method: as §8
# HepG2 cells = assay: In vitro cytotoxicity (MTT), HepG2; format: cell-based, human; conditions: HepG2, 4 hours exposure
# Method: as §8
# HT-29 xenograft = HT-29 xenograft model in nude mice; format: in vivo, nu/nu mice; conditions: for lag phase of tumour growth: ip 3 times per week
# Method: Athymic nude (nu/nu) mice from ICRF stock (HsdOla:ICRF-nu) were obtained from Clare Hall (Pofters Bar, UK). All animals were female and approximately 9 weeks old. Animals, housed in isolator cages and handled under laminar flow, were divided into one control group and two treatment groups, with 5 female mice per group for both the prophylactic and therapeutic schedules
# HT-29 cells were cultured according to the conditions described in section 2.1.1. Cells were harvested, pooled by centrifugation and resuspended in 5 ml medium to which 5 ml Matrigel (basement membrane matrix) was added. 100 μl of cell suspension was injected subcutaneously into each flank of the mice (1.75×10^6 cells per flank).
# The volume of the dosing solution was 10 ml/kg bodyweight. Control animals received an equivalent volume of water.
# Animal bodyweights were recorded throughout the study. Tumour growth was measured 3 times per week using digital calipers and the volume was calculated using the formula:
# Where d1=mean length (n=2) and d2=mean width (n=2). (NB, n=4 if tumour was an irregular shape).
# The maximum permitted tumour volume, according to the terms of the Home Office license, was 1.44 cm^3. Results were expressed graphically for each time point as mean tumour volumes. Tumour weights were recorded at the end of the study, and tumour samples were either snap frozen in liquid nitrogen or fixed in formal saline for further analysis.
# mouse PPAR alpha = molecular target: T1, mouse PPAR alpha (Mus musculus, UniProt P23204); assay: Mouse PPAR alpha transactivation assay in COS-1 cells; format: cell-based; conditions: luciferase reporter, 16 hours, read-out: EC50, activation of mouse PPAR alpha
# T1 construct: expressed in transfected cells; host or cells: COS-1 cells
# T1 sequence (P23204 1-468): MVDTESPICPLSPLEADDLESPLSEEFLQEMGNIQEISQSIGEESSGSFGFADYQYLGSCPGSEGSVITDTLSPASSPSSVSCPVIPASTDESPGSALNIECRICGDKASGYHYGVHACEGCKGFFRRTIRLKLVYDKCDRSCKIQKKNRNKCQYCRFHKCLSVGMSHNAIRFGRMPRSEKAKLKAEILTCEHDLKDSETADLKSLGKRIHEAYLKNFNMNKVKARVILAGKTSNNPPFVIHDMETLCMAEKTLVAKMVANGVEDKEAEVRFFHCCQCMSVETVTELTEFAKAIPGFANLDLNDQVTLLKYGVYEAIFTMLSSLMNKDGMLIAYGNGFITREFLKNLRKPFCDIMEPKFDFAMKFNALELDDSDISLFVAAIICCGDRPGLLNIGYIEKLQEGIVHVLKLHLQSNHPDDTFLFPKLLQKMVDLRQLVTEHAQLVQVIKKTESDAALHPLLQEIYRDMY
smiles,measurement,setting,value
"N.O=C(O)C(F)(F)C(F)(F)C(F)(F)C(F)(F)C(F)(F)C(F)(F)C(F)(F)F [APFO, ammonium perfluorooctanoate]",adverse clinical symptoms or changes in activity,male Fischer 344 rats,not accompanied by any adverse clinical symptoms
same,bodyweight gain,male Fischer 344 rats,marked reductions
same,plasma triglycerides,male Fischer 344 rats; 7 days and beyond,decreased
same,"food consumption per rat, % of control values",male Fischer 344 rats; after first week,80-90%
same,plasma cholesterol concentration,male Fischer 344 rats; all time points (1-365 days),decreased
same,plasma glucose concentration,male Fischer 344 rats; all time points (1-365 days),decreased
same,plasma insulin concentration,male Fischer 344 rats; all time points (1-365 days),decreased
same,decrease of food consumed per unit bodyweight,male Fischer 344 rats; first week,approximately 30%
same,"food consumption per rat, % of control consumption",male Fischer 344 rats; first week of treatment,approximately 50%
same,body weights lower than concurrent controls,male Fischer 344 rats; up to one year,25-30%
same,other adverse clinical observations,"C57BL/6J-ob/ob mice; 5, 15, 25 mg/kg/day, 14 days",No other adverse clinical observations
same,reduction in plasma insulin concentration,"C57BL/6J-ob/ob mice; all treated ob/ob mice (5, 15, 25 mg/kg/day)",greater than 90%
same,plasma triglyceride concentration,"C57BL/6J-ob/ob mice; ob/ob, 5 mg/kg/day",no effect
same,reduction of plasma glucose,"C57BL/6J-ob/ob mice; ob/ob, 5 mg/kg/day",approximately 50%
same,bodyweight,"C57BL/6J-ob/ob mice; ob/ob, 5 mg/kg/day, 14 days",unaffected
same,bodyweight loss over the study period,"C57BL/6J-ob/ob mice; ob/ob, 15 mg/kg/day, 14 days",20%
same,reduction in plasma cholesterol concentration,"C57BL/6J-ob/ob mice; ob/ob, 25 mg/kg/day",~30%
same,bodyweight loss as percentage of initial bodyweight,"C57BL/6J-ob/ob mice; ob/ob, 25 mg/kg/day, 14 days",33%
same,"plasma triglyceride, % of control values","C57BL/6J-ob/ob mice; ob/ob, 15 or 25 mg/kg/day",40%
same,"plasma glucose, % of control values","C57BL/6J-ob/ob mice; ob/ob, 15 or 25 mg/kg/day, dose-related",approximately 20%
same,epididymal fat pad weight,"C57BL/6J-ob/ob mice; ob/ob, dose-related",decreased
same,food consumption lower than control mice,"C57BL/6J-ob/ob mice; ob/ob, high dose 25 mg/kg/day",76%
same,food consumption lower than control mice,"C57BL/6J-ob/ob mice; ob/ob, intermediate dose 15 mg/kg/day",53%
same,reduction in plasma cholesterol concentration,"C57BL/6J-ob/ob mice; ob/ob, low and mid dose levels (5, 15 mg/kg/day)",not evident
same,food consumption lower than control mice,"C57BL/6J-ob/ob mice; ob/ob, low dose 5 mg/kg/day",17%
same,epididymal fat pad weight,C57BL/6J-+/+ mice,decreased
same,overall food consumption lower than +/+ controls,C57BL/6J-+/+ mice,31%
same,"plasma glucose, % of control values",C57BL/6J-+/+ mice,55%
same,plasma insulin concentration,C57BL/6J-+/+ mice,marked reduction
same,plasma leptin concentration decreased,C57BL/6J-+/+ mice,"to, or below the level of quantitation"
same,"plasma triglycerides, % of control values",C57BL/6J-+/+ mice,35%
same,reduction in plasma cholesterol concentration,C57BL/6J-+/+ mice,~30%
same,bodyweight loss as percentage of initial bodyweight,C57BL/6J-+/+ mice; 14 days,26%
same,plasma leptin concentration,GK/Mol rats; GK/Mol rats,no differences
same,"plasma glucose, % of control values","GK/Mol rats; GK/Mol, 30 mg/kg/day",about 85%
same,"total food consumption, % of control values","GK/Mol rats; GK/Mol, 3, 10, 30 mg/kg, not related to dose",86-98%
same,"plasma insulin, % of control values","GK/Mol rats; GK/Mol, dose-dependent reduction reaching this value",about 10%
same,"body weight gain, % of control values","GK/Mol rats; GK/Mol, high dose 30 mg/kg",44%
same,"body weight gain, % of control values","GK/Mol rats; GK/Mol, low dose 3 mg/kg",90%
same,"body weight gain, % of control values","GK/Mol rats; GK/Mol, mid dose 10 mg/kg",71%
same,bodyweight gain,Wistar rats; 30 mg/kg,no effect
same,food consumption versus controls,Wistar rats; 30 mg/kg,no difference
same,"plasma cholesterol, % of control values",Wistar rats; 30 mg/kg,73%
same,"plasma insulin, % of control values",Wistar rats; 30 mg/kg,about 10%
same,group mean plasma leptin lower than controls by,Wistar rats; 30 mg/kg/day,approximately 40%
same,concentration eliciting a cytotoxic effect,HT-29 cells,exceeding 500 μM
same,concentration eliciting a cytotoxic effect,MCF7 cells,exceeding 500 μM
same,concentration eliciting a cytotoxic effect,HepG2 cells,exceeding 500 μM
same,animal body weight versus control,"HT-29 xenograft; prophylactic and therapeutic groups, 15 and 25 mg/kg ip",no significant difference
same,macroscopic appearance of tumours,"HT-29 xenograft; prophylactic group, control tumours solid",fluid-filled
same,tumour volume course,"HT-29 xenograft; prophylactic, 15 mg/kg ip",continued to increase
same,tumour weight smaller than in control animals,"HT-29 xenograft; prophylactic, 15 mg/kg ip",22%
same,time after which tumour growth reached a plateau,"HT-29 xenograft; prophylactic, 25 mg/kg ip",26 days
same,tumour weight smaller than in control animals,"HT-29 xenograft; prophylactic, 25 mg/kg ip",58%
same,lag phase of tumour growth,"HT-29 xenograft; prophylactic, control 15 days",22 days
same,tumour weight smaller than controls,"HT-29 xenograft; therapeutic, 15 mg/kg ip",45%
same,tumour weight smaller than controls,"HT-29 xenograft; therapeutic, 25 mg/kg ip",37%
same,plateau of tumour growth,"HT-29 xenograft; therapeutic, highest dose group 25 mg/kg, study incomplete",No plateau was reached
same,lag phase of tumour growth,"HT-29 xenograft; therapeutic, control 17 days",26 days
same,pEC50,mouse PPAR alpha,3.99
